Results from US8088819B2, “Derivatives of substituted 3-phenyl-1-(phenylthienyl)propan-1-ones and of 3-phenyl-1-(phenylfuranyl) propan-1-ones, preparation and use” (priority 2006, dated 2012).

How the values were obtained:
hPPARdelta = target: T1, hPPARdelta (Homo sapiens, UniProt Q03181); test: PPAR activation: Gal4-hPPARδ chimera luciferase transactivation in COS-7 cells, Method 1; assay type: cell-based; conditions: COS-7, 24 h; for Emax: maximum percentage response relative to the reference GW501516, read-out: hPPARdelta % max
T1 construct: expressed in transfected cells; host or cells: COS-7 (monkey kidney fibroblasts)
T1 sequence (Q03181 211-439 limits assumed): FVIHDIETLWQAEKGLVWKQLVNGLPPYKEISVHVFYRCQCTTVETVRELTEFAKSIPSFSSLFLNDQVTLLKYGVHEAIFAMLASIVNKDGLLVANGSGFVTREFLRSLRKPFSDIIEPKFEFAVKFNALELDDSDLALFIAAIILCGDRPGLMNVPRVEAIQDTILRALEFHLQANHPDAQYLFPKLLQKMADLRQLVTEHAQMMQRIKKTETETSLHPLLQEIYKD
In short: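 COS-7 cells transiently transfected with Gal4 DBD–human PPAR LBD (DEF domain) chimeras plus Gal4(RE)_TkpGL3 luciferase reporter (1/10 ratio). Compounds applied 24 h at 37 °C in serum-free medium at doses between 10^−5 and […]; luciferase read after lysis, EC50 derived.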

murine myocytes (C2C12) = test: β-oxidation of fatty acids in murine myocytes (tritiated palmitate); assay type: cell-based; conditions: 24 h pretreatment
Excerpt: The more the induction of the β-oxidation of fatty acids is increased, the greater the stimulating action of the compound according to the invention on metabolism in the muscle cells.
The objective is to measure the amount of tritiated water formed during the mitochondrial oxidation of ^3H-labeled fatty acids.
The C2C12 murine cell line (obtained from ECACC) is cultivated in DMEM medium (Gibco; 41965-039) with addition of 1% L-glutamine (Gibco; 25030), 1% penicillin/streptomycin (VWR; BWSTL0022/100) and 10% decomplemented fetal calf serum (FCS. Gibco; 10270-106).
The cells are seeded on 48-well plates at a density of 25·10^3 cells/well. At confluence, the medium is replaced with a differentiating medium (basal medium with addition of 2% of horse serum (Gibco; 26050-088)), then incubated at 37° C. and 5% CO2 for 4 days in order to differentiate them to myocytes.
After 4 days of differentiation, the cells are treated with the compounds according to the invention added to the culture medium for differentiation. Compound 2 was tested by dose effect from 0.01 to 1 μM, and the others were tested at a dose of 1 μM. The compounds according to the invention are dissolved in dimethylsulfoxide (DMSO, Sigma; D5879). The cells are treated for 24 h at 37° C., 5% CO2. The effect of the compounds according to the invention is compared with the effect of DMSO alone. […]
Secondly, 50 μL of precipitated supernatant is evaporated for 2 days, then the residual tritium is measured in order to evaluate the amount of tritiated palmitate not converted to water.
A standard range is prepared by successive dilutions of the tritiated palmitate/BSA complex in order to determine the amount of palmitate converted to water. For each time of the kinetics, 1 h, 2 h and 3 h, the amount in nanomoles of oxidized palmitate is calculated by linear regression. The areas under the curve are determined for each set of conditions and the results are normalized with DMSO. […]

| EC50 (hPPARdelta) | Emax (hPPARdelta) | SMILES | β-oxidation of fatty acids in murine myocytes (murine myocytes (C2C12); at 1 μm) | β-oxidation of fatty acids in murine myocytes (murine myocytes (C2C12); in dose effect starting from 0.01 μM) |
| --- | --- | --- | --- | --- |
| 34 nM | 107% | CC(C)(Oc1ccc(CCC(O)c2ccc(-c3ccc(C(F)(F)F)cc3)s2)c(Cl)c1Cl)C(=O)O (stereo not drawn) [Compound 4, 2-(2,3-dichloro-4-(3-hydroxy-3-(5-(4-(trifluoromethyl)phenyl)thien-2-yl)propyl)phenoxy)-2-methylpropanoic acid] | significant increase | – |
| 3 nM | 105% | CC(C)(Oc1ccc(CCC(=O)c2cc(-c3ccc(C(F)(F)F)cc3)cs2)c(Cl)c1Cl)C(=O)O [Compound 11, 2-(2,3-dichloro-4-(3-oxo-3-(4-(4-(trifluoromethyl)phenyl)thien-2-yl)propyl)phenoxy)-2-methylpropanoic acid] | significant increase | – |
| 7 nM | 91% | CC(C)(Oc1ccc(CCC(=O)c2ccc(-c3ccc(C(F)(F)F)cc3)s2)c(Cl)c1Cl)C(=O)O [Compound 2, 2-(2,3-dichloro-4-(3-oxo-3-(5-(4-(trifluoromethyl)phenyl)thien-2-yl)propyl)phenoxy)-2-methylpropanoic acid] | – | significant increase |
